According to patent publication US20240245679A1, “AGENT FOR TREATING INFECTIOUS DISEASES AGAINST MUTANT VIRUSES OF NOVEL CORONAVIRUS” (FUJIFILM TOYAMA CHEMICAL CO., LTD., priority 2021, published 2024):

How the values were obtained:
Assay in all cases: microbe, parasite or virus in culture
Format in all cases: cell-based, SARS-COV-2
USA_WA1/2020 (A line) = conditions: Severe acute respiratory syndrome coronavirus 2, Vero 76, read-out: EC90 value (90% effective concentration)
[1] = tested on: hCoV-19/England/204820464/2020 (B.1.1.7 line); conditions: Severe acute respiratory syndrome coronavirus 2, Vero 76, read-out: EC90 value (90% effective concentration)
[2] = tested on: hCoV-19/Japan/TY7-503/2021 (P.1 line); conditions: Severe acute respiratory syndrome coronavirus 2, Vero 76, read-out: EC90 value (90% effective concentration)
[3] = tested on: hCoV-19/Japan/TY2-312-P1/2020 (B.1.1 line)
[4] = tested on: hCoV-19/Japan/QK002/2020 (B.1.1.7 line); conditions: Severe acute respiratory syndrome coronavirus 2, VeroE6/TMPRSS2; 40 hours
[5] = tested on: hCoV-19/Japan/TY8-612/2021 (B.1.351 line); conditions: Severe acute respiratory syndrome coronavirus 2, VeroE6/TMPRSS2; 40 hours
[6] = tested on: hCoV-19/Japan/TY7-501/2021 (P.1 line); conditions: Severe acute respiratory syndrome coronavirus 2, VeroE6/TMPRSS2; 40 hours
[7] = tested on: hCoV-19/Japan/TY11-927-P1/2021 (B.1.617 line); conditions: Severe acute respiratory syndrome coronavirus 2, VeroE6/TMPRSS2; 40 hours
[8] = tested on: hCoV-19/Japan/TY11-330-P1/2021 (B.1.617.1 line); conditions: Severe acute respiratory syndrome coronavirus 2, VeroE6/TMPRSS2; 40 hours
SARS-2 WA1/2020 = conditions: Severe acute respiratory syndrome coronavirus 2, Vero C1008; 72 hours
SARS-2-9017 (delta) = conditions: Severe acute respiratory syndrome coronavirus 2, Vero C1008; 72 hours
SARS-2 Omicron = conditions: Severe acute respiratory syndrome coronavirus 2, Vero C1008; 72 hours

Compound `NC(=O)c1nc(F)cnc1O` [Compound A, 6-fluoro-3-hydroxy-2-pyrazinecarboxamide] has an EC90 (USA_WA1/2020 (A line)) of 68 µM, an EC90 [1] of 83 µM and an EC90 [2] of 190 µM. The EC90 ([3]; 40 hours) was 466 µM, the EC90 ([3]; Severe acute respiratory syndrome coronavirus 2, VeroE6/TMPRSS2, 40 h) was 302 µM and the EC90 [4] was 359 µM. It also gave an EC90 [5] of 223 µM, an EC90 [6] of 306 µM and an EC90 [7] of 294 µM. The EC90 [8] was 491 µM, the EC90 (SARS-2 WA1/2020) was 125 to 250 µM and the EC90 (SARS-2-9017 (delta)) was 125 to 250 µM. The EC90 (SARS-2 Omicron) was 62.5 to 125 µM.
